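Tested at 5 concentrations; 48 h exposure; 96-well plates; endpoints linearly interpolated, else capped at highest concentration. The concentration for 50% growth inhibition is given as GI50.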 Activity calls are given as the source filed them. Cut-off read from the data, not from the text of the source: active = GI50 up to about 1.1 µM and inactive = higher.
Tests used:
Assay in all cases: NCI-60 cell line screen, 48 h
786-0 = test system: 786-0
HOP-62 = test system: HOP-62
IGROV-1 = test system: IGROV-1
K562 = test system: K562
Malme-3M = test system: Malme-3M
SK-MEL-28 = test system: SK-MEL-28
SK-MEL-2 = test system: SK-MEL-2
SK-MEL-5 = test system: SK-MEL-5
SNB-75 = test system: SNB-75
SW-620 = test system: SW-620
UACC-257 = test system: UACC-257
A498 = test system: A498
HCT-116 = test system: HCT-116
SNB-19 = test system: SNB-19
UO-31 = test system: UO-31

Structure (SMILES) | GI50 (786-0) | GI50 (HOP-62) | GI50 (IGROV-1) | GI50 (K562) | GI50 (Malme-3M) | GI50 (SK-MEL-28) | GI50 (SK-MEL-2) | GI50 (SK-MEL-5) | GI50 (SNB-75) | GI50 (SW-620) | GI50 (UACC-257) | GI50 (A498) | GI50 (HCT-116) | GI50 (SNB-19) | GI50 (UO-31)
O=C1CC(O)(c2ccccc2)C(c2ccccc2)=C1c1ccccc1 (configuration not stated) | 45 µM (inactive) | 38.2 µM (inactive) | 44 µM (inactive) | 30.5 µM (inactive) | 46 µM (inactive) | 39.8 µM (inactive) | 25.5 µM (inactive) | 39.6 µM (inactive) | 27.8 µM (inactive) | 94.4 µM (inactive) | 31.5 µM (inactive) | – | – | – | –
COC(=O)NN1C(C)=C(C(=O)OC)C2(CCOC2=O)C1(C)O (configuration not stated) | > 100 µM (inactive) | > 100 µM (inactive) | > 100 µM (inactive) | > 100 µM (inactive) | > 100 µM (inactive) | > 100 µM (inactive) | > 100 µM (inactive) | – | – | > 100 µM (inactive) | > 100 µM (inactive) | > 100 µM (inactive) | > 100 µM (inactive) | > 100 µM (inactive) | > 100 µM (inactive)
C=C=C[P+](c1ccccc1)(c1ccccc1)c1ccccc1 | 5.02 µM (inactive) | 53.1 µM (inactive) | 31.5 µM (inactive) | 3.4 µM (inactive) | 13.2 µM (inactive) | 21.4 µM (inactive) | 10.7 µM (inactive) | 5.86 µM (inactive) | 8.79 µM (inactive) | – | 7.06 µM (inactive) | 93.8 µM (inactive) | 3.37 µM (inactive) | – | 35.2 µM (inactive)
CC(C)(CN1CCCCC1)C(=O)/C=C/c1ccc(Cl)c(Cl)c1 | 1.38 µM (inactive) | 1.95 µM (inactive) | 2 µM (inactive) | 1.59 µM (inactive) | 1.83 µM (inactive) | 1.86 µM (inactive) | 1.73 µM (inactive) | 2.07 µM (inactive) | 1.48 µM (inactive) | 1.37 µM (inactive) | 1.18 µM (inactive) | 1.67 µM (inactive) | 1.65 µM (inactive) | 3.15 µM (inactive) | 1.63 µM (inactive)
CN(C)[C@@H]1C(O)=C(C(N)=O)C(=O)[C@@]2(O)C(O)=C3C(=O)c4c(O)cccc4C[C@H]3C[C@@H]12 | 2.31 µM (inactive) | 2 µM (inactive) | 2.1 µM (inactive) | 2.51 µM (inactive) | 1.51 µM (inactive) | 1.77 µM (inactive) | 1.83 µM (inactive) | 1.75 µM (inactive) | 1.61 µM (inactive) | 3.11 µM (inactive) | – | 2.2 µM (inactive) | 1.77 µM (inactive) | 1.97 µM (inactive) | 1.87 µM (inactive)
Cc1cccc(C(C)C)c1N1C(=O)C(=O)C(c2nc3ccccc3o2)C(=O)C1=O | > 100 µM (inactive) | > 100 µM (inactive) | > 100 µM (inactive) | 49 µM (inactive) | > 100 µM (inactive) | > 100 µM (inactive) | > 100 µM (inactive) | 60.1 µM (inactive) | 26.9 µM (inactive) | 56.8 µM (inactive) | 51.9 µM (inactive) | > 100 µM (inactive) | 53.7 µM (inactive) | > 100 µM (inactive) | > 100 µM (inactive)
COc1cc2c(cc1OC)C(=O)Cc1ccc(OC)c(OC)c1CN(C)CC2 | > 100 µM (inactive) | > 100 µM (inactive) | > 100 µM (inactive) | > 100 µM (inactive) | > 100 µM (inactive) | > 100 µM (inactive) | > 100 µM (inactive) | > 100 µM (inactive) | > 100 µM (inactive) | > 100 µM (inactive) | > 100 µM (inactive) | 11.9 µM (inactive) | > 100 µM (inactive) | > 100 µM (inactive) | > 100 µM (inactive)
CCOC(=O)[C@H]1Nc2ccccc2C2c3ccccc3CC21 (some centres not stated) | > 100 µM (inactive) | > 100 µM (inactive) | > 100 µM (inactive) | 38.9 µM (inactive) | > 100 µM (inactive) | 34.2 µM (inactive) | > 100 µM (inactive) | 21.8 µM (inactive) | 39.5 µM (inactive) | 36.8 µM (inactive) | 22 µM (inactive) | 24.9 µM (inactive) | 41.5 µM (inactive) | > 100 µM (inactive) | 68.4 µM (inactive)
O=C(c1ccc(NCN2C(=O)CCC2=O)cc1)c1ccc(NCN2C(=O)CCC2=O)cc1 | > 100 µM (inactive) | > 100 µM (inactive) | > 100 µM (inactive) | 67.3 µM (inactive) | > 100 µM (inactive) | > 100 µM (inactive) | > 100 µM (inactive) | > 100 µM (inactive) | – | 58.5 µM (inactive) | 27.7 µM (inactive) | – | > 100 µM (inactive) | > 100 µM (inactive) | > 100 µM (inactive)
NC(CCCC(N)P(=O)(O)O)P(=O)(O)O (configuration not stated) | > 100 µM (inactive) | – | > 100 µM (inactive) | > 100 µM (inactive) | > 100 µM (inactive) | > 100 µM (inactive) | – | > 100 µM (inactive) | > 100 µM (inactive) | > 100 µM (inactive) | > 100 µM (inactive) | > 100 µM (inactive) | > 100 µM (inactive) | – | > 100 µM (inactive)
COc1ccccc1/C=C1\C(=O)N(C(=O)Cc2ccccc2)N=C1C | > 100 µM (inactive) | > 100 µM (inactive) | – | > 100 µM (inactive) | > 100 µM (inactive) | > 100 µM (inactive) | > 100 µM (inactive) | > 100 µM (inactive) | > 100 µM (inactive) | > 100 µM (inactive) | > 100 µM (inactive) | – | > 100 µM (inactive) | > 100 µM (inactive) | > 100 µM (inactive)
COc1ccc(C2=NN(c3ccccc3)C[N+](c3ccc(OC)cc3)=N2)cc1 | 49.9 µM (inactive) | 66.1 µM (inactive) | 21.3 µM (inactive) | 19.2 µM (inactive) | 21.2 µM (inactive) | 26.9 µM (inactive) | – | 14.7 µM (inactive) | – | 24.5 µM (inactive) | 76.2 µM (inactive) | > 100 µM (inactive) | 33.7 µM (inactive) | 28.4 µM (inactive) | 18.9 µM (inactive)
CC12CCC(=O)N1[C@@H](c1ccccc1)[C@@H](c1ccccc1)O2 (some centres not stated) | > 100 µM (inactive) | > 100 µM (inactive) | > 100 µM (inactive) | > 100 µM (inactive) | > 100 µM (inactive) | – | > 100 µM (inactive) | > 100 µM (inactive) | > 100 µM (inactive) | > 100 µM (inactive) | > 100 µM (inactive) | > 100 µM (inactive) | > 100 µM (inactive) | > 100 µM (inactive) | > 100 µM (inactive)
O=C(Cc1ccccc1)NN1C(=O)C(Cl)C1c1ccc([N+](=O)[O-])cc1 (configuration not stated) | > 100 µM (inactive) | > 100 µM (inactive) | > 100 µM (inactive) | 65.6 µM (inactive) | > 100 µM (inactive) | > 100 µM (inactive) | > 100 µM (inactive) | 49.1 µM (inactive) | 93.8 µM (inactive) | > 100 µM (inactive) | 76.4 µM (inactive) | – | > 100 µM (inactive) | > 100 µM (inactive) | > 100 µM (inactive)
C/C=C(\NC(=O)C(CCCCN)NC(=O)C(C)NC(=O)C1CSC(C)C(NC(=O)C2CSCC(NC(=O)C(C)NC(=O)C(N)C(C)CC)C(=O)NC(CCCCN)C(=O)NC(Cc3ccccc3)C(=O)NC(CC(C)C)C(=O)N2)C(=O)N2CCCC2C(=O)NCC(=O)N1)C(=O)NCC(=O)NC1CSCC2NC(=O)C(Cc3ccc(O)cc3)NC(=O)C(CSC=CNC2=O)NC(=O)C(CC(N)=O)NC(=O)C(Cc2ccccc2)NC1=O (configuration not stated) | 35.6 µM (inactive) | < 0.01 µM (active) | > 100 µM (inactive) | > 100 µM (inactive) | – | 78.3 µM (inactive) | > 100 µM (inactive) | 19.6 µM (inactive) | 20.3 µM (inactive) | > 100 µM (inactive) | – | – | > 100 µM (inactive) | > 100 µM (inactive) | –
Nc1nnc(N)n1N | > 100 µM (inactive) | > 100 µM (inactive) | > 100 µM (inactive) | > 100 µM (inactive) | > 100 µM (inactive) | > 100 µM (inactive) | > 100 µM (inactive) | > 100 µM (inactive) | > 100 µM (inactive) | > 100 µM (inactive) | > 100 µM (inactive) | – | > 100 µM (inactive) | > 100 µM (inactive) | > 100 µM (inactive)
Cc1c(C(=O)CC(=O)C(=O)Nc2ccccc2C(F)(F)F)[n+]([O-])c2ccccc2[n+]1[O-] | 33.6 µM (inactive) | 44 µM (inactive) | 18 µM (inactive) | 22 µM (inactive) | 20.6 µM (inactive) | 27.4 µM (inactive) | 19.8 µM (inactive) | 16.3 µM (inactive) | – | 16.2 µM (inactive) | 18.4 µM (inactive) | > 100 µM (inactive) | 14.7 µM (inactive) | 32.1 µM (inactive) | 35.1 µM (inactive)
CCOC(=O)Cn1c(=O)n(C)c(=O)c2[nH]cnc21 | > 100 µM (inactive) | > 100 µM (inactive) | > 100 µM (inactive) | > 100 µM (inactive) | > 100 µM (inactive) | > 100 µM (inactive) | > 100 µM (inactive) | > 100 µM (inactive) | > 100 µM (inactive) | > 100 µM (inactive) | – | > 100 µM (inactive) | > 100 µM (inactive) | > 100 µM (inactive) | > 100 µM (inactive)
N#Cc1cccc(N2C(=O)c3ccc(C(=O)c4ccc5c(c4)C(=O)N(c4cccc(C#N)c4)C5=O)cc3C2=O)c1 | 64.4 µM (inactive) | > 100 µM (inactive) | > 100 µM (inactive) | > 100 µM (inactive) | > 100 µM (inactive) | – | > 100 µM (inactive) | > 100 µM (inactive) | 35.6 µM (inactive) | > 100 µM (inactive) | > 100 µM (inactive) | > 100 µM (inactive) | > 100 µM (inactive) | > 100 µM (inactive) | > 100 µM (inactive)

— ChEMBL document CHEMBL1201862, “PubChem BioAssay data set” (2004)
